The subject of the first assay is midbrain dopaminergic neurons. Briefly: Dopamine (DA) uptake assay in primary midbrain cultures. The assay is classed as cell-based, rat. As to conditions: FIG. 36. The method, then: Primary midbrain cultures were prepared from rat embryo ventral mesencephalon as described previously by Lin et al (1994). In brief, rostral mesencephalic tegmentum of embryonic day 16 rat embryos was collected in DMEM/F12 (Hyclone SH30023.01) containing 2 mM glutamine on ice, The tissue was treated with 0.1% trypsin in Hanks' balanced salt solution (HBSS, Gibco 14175-095) for 15 min at 37° C. and dissociated mechanically by mild trituration with a fire-polished glass pipet in growth medium plus 2% heat-inactivated fetal bovine serum (FBS). The growth medium consisted of equal volumes of Dulbecco's minimal essential medium DMEM (Gibco 12100-046) and HAM's F12 nutrient mixture (Gibco 21700-075) supplemented with 33 mM glucose, 13 mM sodium bicarbonate, 5 mM HEPES, 2 mM glutamine, 25 μg/ml insulin, 100 μg/ml transferrin, 60 μM putrescine, 20 nM progesterone, 30 nM sodium selenite, 5 U/ml penicillin G and 5 μg/ml streptomycin. 24-well tissue culture plate was coated by adding 15 μg/ml poly-1-ornithine hydrobromide solution at 0.5 ml/well, incubated at room temperature for 1 hr. The coating solution was removed and the well washed 3 times with distilled water and one wash with HBSS. The dissociated cells were plated onto polyornithine-coated wells at 250,000-350,000 trypan blue-excluding viable cells per well in 500 μl of above medium containing 1% FBS. After 3 h when most of the cells had adhered to the bottom of the well, the medium was replaced with 500 μl of fresh medium without FBS. A serial dilution of the sample to be assayed for trophic activity was added to each well in duplicate at the time of medium change or within 24 h thereafter. Unless otherwise stated, cultures were incubated at 37° C. without any further medium change up to 7 days. Primary hindbrain cultures were prepared as described for the midbrain cultures except that the rostral raphe region (instead of the rostral mesencephalon) was dissected and trypsinized for 20 (instead of 15) min.
[^3H]DA uptake was measured in cultures at day 7, and all the solutions were maintained at 37° C. The growth medium was removed, and the cultures were rinsed twice with 0.25 ml of uptake buffer, which consists of HBSS (Gibco 11201-092) supplemented with 28 mM glucose, 15 mM HEPES, 1 mM ascorbic acid (an antioxidant), and […] pargyline (a monoamine oxidase inhibitor). The cultures were then incubated with 0.25 ml of fresh uptake buffer containing 50 nM [^3H]DA (NEN/DuPont) for 20 min at 37° C. [^3H]DA uptake was stopped by removing the incubation mixture, and cells were then washed twice with 0.5 ml of the uptake buffer at room temperature. To release [^3H]DA from the cells, the cultures were lysed with 0.2 ml of 0.1 N NaOH for 1 h at room temperature, the lysate was then added to 1 ml of Microscint-20 (Packard 6013621), and counted for radioactivity in a microplate scintillation counter (Packard TopCount, NXT). Background values were obtained by adding to the uptake buffer 0.5 mM GBR-12909, a specific inhibitor of the high-affinity uptake pump of the dopaminergic neurons, and were usually <5% of the ^3H uptake in untreated control cultures. Forskolin (Fk, 25 μM) was employed as a positive control.
In the case of `Cc1ccc(/C=C/C(=O)Nc2ccc(S(=O)(=O)Nc3cccs3)cc2)c(C)c1` [Compound Z′], the “stimulation maximum of DA uptake compared to compound A” value is reported as “higher stimulation maximum”.

Still in this assay, the particulars now being: Rattus norvegicus, Neuron, compound concentration 0.25 μM; midbrain culture; read-out: DA uptake % of control.
In the case of `O=C(Nc1ccc(S(=O)(=O)Nc2nccs2)cc1)c1cc2ccccc2oc1=O` [F′′′′], the activity at 0.25 µM is 160%.

Staying with this assay, now noted: Rattus norvegicus, Neuron, compound concentration 0.3 μM; midbrain culture; read-out: DA uptake % of control.
In the case of `O=C(/C=C/c1ccc(Cl)cc1Cl)Nc1ccc(S(=O)(=O)Nc2nccs2)cc1` [V″], the activity at 0.3 µM came out at 250%.
Still for that read-out and setting: as for `O=C(Nc1ccc(S(=O)(=O)Nc2nccs2)cc1)c1sc2cc(Cl)ccc2c1Cl` [F′], the figure is 180%.

Staying with this assay, now noted: Rattus norvegicus, Neuron, compound concentration 0.6 μM; midbrain culture; read-out: DA uptake % of control.
With `O=C(Nc1ccc(S(=O)(=O)Nc2nccs2)cc1)c1sc2cc(Cl)ccc2c1Cl` [T′], the activity at 0.6 µM was 140%.
Same read-out and setting: as for `O=C(/C=C/c1cccc(Cl)c1Cl)Nc1ccc(S(=O)(=O)Nc2nccs2)cc1` [Y′′′′], the figure is 180%; as for `O=C(/C=C/c1ccc(C(F)(F)F)cc1)Nc1ccc(S(=O)(=O)Nc2nccs2)cc1` [A′′′], 195%; as for `O=C(/C=C/c1ccccc1Cl)Nc1ccc(S(=O)(=O)N2CCCCC2)cc1` [M′], 145%.
The same measure, in the same setting: as for `CC(C)(C)c1cc(Br)ccc1OCC(=O)Nc1ccc(S(=O)(=O)Nc2nccs2)cc1` [U′], the figure is 140%.

The same assay, now with this note: Rattus norvegicus, Neuron, compound concentration 1.2 μM; midbrain culture; read-out: DA uptake % of control.
As for `O=C(/C=C/c1cccc([N+](=O)[O-])c1)Nc1ccc(S(=O)(=O)Nc2nccs2)cc1` [E′], the activity at 1.2 µM turned out to be 210%.

Staying with this assay, now noted: Rattus norvegicus, Neuron, compound concentration 1.25 μM; midbrain culture; read-out: DA uptake % of control.
As to `O=C(/C=C/c1c(Cl)cccc1Cl)Nc1ccc(S(=O)(=O)Nc2ccccn2)cc1` [A″], the activity at 1.25 µM was 340%.
On the same count and under the same terms, as for `COc1cccc(/C=C/C(=O)Nc2ccc(S(=O)(=O)Nc3nnc[nH]3)cc2)c1` [R′′′], the figure is 150%; as for `CCCOc1ccc(/C=C/C(=O)Nc2ccc(S(=O)(=O)Nc3nccs3)cc2)cc1OC` [P′], 210%.
As for `O=C(/C=C/c1cc(C(F)(F)F)ccc1C(F)(F)F)Nc1ccc(S(=O)(=O)Nc2nccs2)cc1` [X″], the activity at 1.25 µM stood at 245%.
On the same count and under the same terms, next, `Cc1ccc(C)c(/C=C/C(=O)Nc2ccc(S(=O)(=O)Nc3nccs3)cc2)c1` [J″]: 320%; `COc1ccc(/C=C/C(=O)Nc2ccc(S(=O)(=O)Nc3nccs3)cc2)c(Cl)c1OC` [I″]: 245%.
As for `Cc1ccc(/C=C/C(=O)Nc2ccc(S(=O)(=O)Nc3cccs3)cc2)c(C)c1` [Compound Z′], the activity at 1.25 µM came out at 365%.
On the same count and under the same terms, as for `O=C(/C=C/c1cc(F)ccc1C(F)(F)F)Nc1ccc(S(=O)(=O)Nc2nccs2)cc1` [L″], the figure is 375%; as for `O=C(/C=C/c1ccccc1I)Nc1ccc(S(=O)(=O)Nc2nccs2)cc1` [Z″], 300%.
The same measure, in the same setting: next, `COc1ccc(/C=C/C(=O)Nc2ccc(S(=O)(=O)Nc3nccs3)cc2)c(OC)c1` [Z′′′′]: 170%.
Turning to `Cc1cc(C)cc(/C=C/C(=O)Nc2ccc(S(=O)(=O)Nc3nccs3)cc2)c1` [D′′′], the activity at 1.25 µM came out at 240%.
Same read-out and setting: next, `O=C(/C=C/c1cccc(C(F)(F)F)c1)Nc1ccc(S(=O)(=O)Nc2nccs2)cc1` [H′′′′]: 240%; `O=C(/C=C/c1c(Cl)cccc1Cl)Nc1ccc(S(=O)(=O)Nc2nc[nH]n2)cc1` [H″]: 260%; `O=C(/C=C/c1ccccc1C(F)(F)F)Nc1ccc(S(=O)(=O)Nc2nc[nH]n2)cc1` [G″]: 350%.
On the same count and under the same terms, as for `O=C(/C=C/c1ccc(F)cc1Cl)Nc1ccc(S(=O)(=O)Nc2nccs2)cc1` [W′′′′], the figure is 190%.
`O=C(/C=C/c1c(Cl)cccc1Cl)Nc1ccc(S(=O)(=O)Nc2nccs2)cc1` [U′′′′]: the activity at 1.25 µM was determined as 290%.

Still in this assay, the particulars now being: Rattus norvegicus, Neuron, compound concentration 1.4 μM; midbrain culture; read-out: DA uptake % of control.
For the compound `Cc1ccnc(NS(=O)(=O)c2ccc(NC(=O)/C=C/c3cccc(Cl)c3)cc2)n1` [S], the activity at 1.4 µM was 220%.

Still in this assay, the particulars now being: Rattus norvegicus, Neuron, compound concentration 2.5 μM; midbrain culture; read-out: DA uptake % of control.
As to `CN(C)c1ccc(C(=O)Nc2ccc(S(=O)(=O)Nc3nccs3)cc2)cc1` [E′′′], the activity at 2.5 µM was determined as 130%.
Turning to `Cc1ccc(/C=C/C(=O)Nc2ccc(S(=O)(=O)Nc3ccccn3)cc2)cc1` [C′′′′], the activity at 2.5 µM came to 160%.
On to `CC(C)(C)c1ccc(C(=O)Nc2ccc(S(=O)(=O)Nc3nccs3)cc2)cc1` [H], for which the activity at 2.5 µM came out at 150%.
Still for that read-out and setting: next, `O=C(/C=C/c1ccccc1F)Nc1ccc(S(=O)(=O)Nc2ccccn2)cc1` [Z′′′]: 140%; `Cc1ccc(/C=C/C(=O)Nc2ccc(S(=O)(=O)Nc3nccs3)cc2)cc1` [E]: 260%.
Still for that read-out and setting: as for `O=C(Nc1ccc(S(=O)(=O)Nc2nccs2)cc1)c1cc2ccccc2[nH]1` [K′′′′], the figure is 150%; as for `Cc1ccc(/C=C/C(=O)Nc2ccc(S(=O)(=O)Nc3onc(C)c3C)cc2)cc1` [N′], 155%.
Still for that read-out and setting: as for `Cn1c(C(=O)Nc2ccc(S(=O)(=O)Nc3nccs3)cc2)cc2ccccc21` [D′′′′], the figure is 190%; as for `COc1ccccc1/C=C/C(=O)Nc1ccc(S(=O)(=O)NC(=N)/C=C(\C)O)cc1` [W′′′], 140%.
Take `O=C(/C=C/c1ccccc1)Nc1ccc(S(=O)(=O)Nc2nccs2)cc1` [B]: the activity at 2.5 µM was 170%.
The same measure, in the same setting: as for `O=C(/C=C/c1ccccc1F)Nc1ccc(S(=O)(=O)Nc2nccs2)cc1` [A′′′′], the figure is 170%; as for `CCOc1ccccc1/C=C/C(=O)Nc1ccc(S(=O)(=O)Nc2nccs2)cc1` [R′′′′], 170%.
Regarding `O=C(/C=C/c1cccc(F)c1)Nc1ccc(S(=O)(=O)Nc2nc[nH]n2)cc1` [S″], the activity at 2.5 µM was 280%.
Same read-out and setting: next, `Cc1ccc(/C=C/C(=O)Nc2ccc(S(=O)(=O)Nc3nc(C)cc(C)n3)cc2)cc1` [O′]: 150%; `O=C(/C=C/c1ccc(Oc2ccccc2)cc1)Nc1ccc(S(=O)(=O)Nc2nccs2)cc1` [N]: 170%; `O=C(/C=C/c1ccc(F)cc1C(F)(F)F)Nc1ccc(S(=O)(=O)Nc2nc[nH]n2)cc1` [Q″]: 270%.

Staying with this assay, now noted: Rattus norvegicus, Neuron, compound concentration 5 μM; midbrain culture; read-out: DA uptake % of control.
`C/C(O)=C\C(=N)NS(=O)(=O)c1ccc(NC(=O)/C=C/c2ccccc2)cc1` [X′′′]: the activity at 5 µM is 140%.
Still for that read-out and setting: as for `CCOc1cccc(/C=C/C(=O)Nc2ccc(S(=O)(=O)Nc3nccs3)cc2)c1` [S′′′′], the figure is 170%; as for `CCc1nnc(NS(=O)(=O)c2ccc(NC(=O)/C=C/c3ccc(F)cc3)cc2)s1` [W], 180%.
On the same count and under the same terms, as for `COc1ccc(/C=C/C(=O)Nc2ccc(S(=O)(=O)Nc3nccs3)cc2)cc1` [I′′′], the figure is 140%.
With `COc1ccccc1/C=C/C(=O)Nc1ccc(S(=O)(=O)Nc2ccccn2)cc1` [P″], the activity at 5 µM is 200%.
Same read-out and setting: as for `CCc1ccccc1/C=C\C(=O)Nc1ccc(S(=O)(=O)Nc2nc[nH]n2)cc1` [R″], the figure is 290%.

The assay is the same for the next values; noted with them: Rattus norvegicus, Neuron, compound concentration 10 μM; midbrain culture; read-out: DA uptake % of control.
On to `O=C(Nc1ccc(S(=O)(=O)Nc2nccs2)cc1)/C(F)=C/c1ccccc1` [O′′′′], for which the activity at 10 µM was 200%.
Same read-out and setting: as for `CCCCCCCC(=O)Nc1ccc(S(=O)(=O)Nc2nccs2)cc1` [W′], the figure is 200%; as for `Cc1nc(NS(=O)(=O)c2ccc(NC(=O)/C=C/c3ccccc3Cl)cc2)sc1C(=O)O` [Y′′′], 160%.

The assay is the same for the next values; noted with them: Rattus norvegicus, Neuron, compound concentration 20 μM; midbrain culture; read-out: DA uptake % of control.
In the case of `O=C(COc1ccc(Cl)cc1)Nc1ccc(S(=O)(=O)Nc2nccs2)cc1` [Compound D], the activity at 20 µM was 210%.

The assay is the same for the next values; noted with them: Rattus norvegicus, Neuron, compound concentration 40 μM; midbrain culture; read-out: DA uptake % of control.
As for `O=C(/C=C/c1ccccc1)Nc1ccc(S(=O)(=O)Nc2nncs2)cc1` [T′′′], the activity at 40 µM came out at 150%.
With `COc1ccc(/C=C/C(=O)Nc2ccc(S(=O)(=O)Nc3cc(C)nc(C)n3)cc2)cc1OC` [Y], the activity at 40 µM came to 160%.
In the case of `O=C(/C=C/c1ccco1)Nc1ccc(S(=O)(=O)Nc2ccco2)cc1` [G], the activity at 40 µM was 190%.

The same assay, now with this note: Rattus norvegicus, Neuron; midbrain culture, FIG. 36; read-out: half-maximal effective concentration (EC50) for DA uptake stimulation.
As for `Cc1ccc(/C=C/C(=O)Nc2ccc(S(=O)(=O)Nc3cccs3)cc2)c(C)c1` [Compound Z′], the EC50 was roughly 200 nM.

Source of the values: patent US7671077B2, “Neuroprotective small organic molecules, compositions and uses related thereto” (priority 2004, dated 2010).
